Test systems include A549; CCRF-CEM; COLO 205; EKVX; HOP-62; LOX IMVI; M14; MCF7; MDA-N; OVCAR-4; PC-3; SF-295; SW-620; TK-10; UACC-62; UO-31; 786-0; NCI-H226; NCI-H23; CAKI-1.
What all share (assay): growth of human tumour cells (NCI), 48 h

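Assay format: 96-well plates, 48-hour exposure. GI50 = concentration required for 50% inhibition of growth.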 Activity calls are given as the source filed them. Cut-off read from the data, not from the text of the source: active = GI50 up to about 1.1 µM and inactive = higher.

Regarding `CC(C)(C)OC(=O)NCCc1ccc(N)cc1`, the GI50 in the assay on A549, in the assay on CCRF-CEM, in the assay with COLO 205, with EKVX, in the assay with HOP-62 and in the assay on LOX IMVI was > 100 µM (inactive) throughout. For the same compound, the GI50 with M14 was > 100 µM (inactive); in the assay on MCF7 it was > 100 µM (inactive); in the assay on MDA-N it was > 100 µM (inactive); in the assay with OVCAR-4 it was > 100 µM (inactive); in the assay with PC-3, > 100 µM (inactive); with SF-295, 49.2 µM (inactive). For the same compound, the GI50 with SW-620 was > 100 µM (inactive); in the assay on TK-10, > 100 µM (inactive); with UACC-62 it was > 100 µM (inactive); with UO-31 it was 4.2 µM (inactive).
As to `COC1=CC(=O)c2c(O)ccc(O)c2C1=O`, the GI50 in the assay with 786-0 was 14.6 µM (inactive); in the assay with A549, 1.98 µM (inactive); in the assay on CCRF-CEM, 8.57 µM (inactive); with COLO 205 it was 1.5 µM (inactive); in the assay on EKVX, 20.2 µM (inactive); in the assay on HOP-62, 2.19 µM (inactive). In addition, the GI50 in the assay with M14 was 0.689 µM (active); in the assay with MCF7 it was 2.82 µM (inactive); in the assay with MDA-N, 0.7 µM (active); in the assay on NCI-H226, 21.6 µM (inactive); in the assay with NCI-H23 it was 2.64 µM (inactive); in the assay with OVCAR-4 it was 13.6 µM (inactive). The GI50 is 18.5 µM (inactive) in the assay on PC-3; 2 µM (inactive) in the assay on SF-295; 3.85 µM (inactive) in the assay on SW-620; 14.7 µM (inactive) in the assay with TK-10; 1.92 µM (inactive) in the assay on UACC-62; 17.3 µM (inactive) in the assay with UO-31.
As for `Sc1nc(S)nc(Oc2ccc(Cl)c(Cl)c2)n1`, the GI50 was > 61.2 µM (inactive) in the assay on 786-0; 22.4 µM (inactive) with A549; 46.3 µM (inactive) with CAKI-1; 23.2 µM (inactive) with CCRF-CEM; > 42.3 µM (inactive) in the assay with COLO 205; 42.1 µM (inactive) in the assay on EKVX. In addition, the GI50 in the assay with HOP-62 is 40 µM (inactive); with LOX IMVI, 18.1 µM (inactive); in the assay on M14, 43.5 µM (inactive); in the assay on MCF7, 50.6 µM (inactive); with MDA-N it was 77.1 µM (inactive); in the assay with NCI-H226 it was 38.1 µM (inactive). In addition, the GI50 in the assay on NCI-H23 was 27.2 µM (inactive); in the assay with OVCAR-4, 41.1 µM (inactive); with SF-295 it was 59 µM (inactive); with SW-620, > 61.4 µM (inactive); with TK-10, > 66.1 µM (inactive); in the assay with UACC-62, 31.3 µM (inactive). Further, the GI50 in the assay with UO-31 is 24.6 µM (inactive).
Regarding `O=C(CNC(=O)c1ccccc1)Oc1c(Cl)c(Cl)c(Cl)c(Cl)c1Cl`, the GI50 in the assay on 786-0 is 50.5 µM (inactive); in the assay on A549, 29 µM (inactive); in the assay on CAKI-1 it was 25.8 µM (inactive); in the assay on CCRF-CEM, 38.7 µM (inactive); in the assay on COLO 205, 35 µM (inactive); in the assay on EKVX it was 21.5 µM (inactive). Besides, the GI50 with HOP-62 is 38.3 µM (inactive); in the assay with LOX IMVI, 35 µM (inactive); in the assay on M14, 64.9 µM (inactive); in the assay with MCF7, 40.2 µM (inactive); in the assay with NCI-H226, 29 µM (inactive); with NCI-H23 it was > 100 µM (inactive). Moreover, the GI50 in the assay with OVCAR-4 was 45.5 µM (inactive); with PC-3, 24.7 µM (inactive); in the assay on SF-295 it was 33.2 µM (inactive); in the assay on SW-620, 21.6 µM (inactive); in the assay with TK-10 it was 40.4 µM (inactive); in the assay on UACC-62 it was 21.9 µM (inactive). Besides, the GI50 with UO-31 is 22 µM (inactive).
As to `O=[N+]([O-])c1ccc(C(O)(C#CCN2CCCC2)c2ccccc2)cc1` (stereo not given), the GI50 in the assay with 786-0 was 39.4 µM (inactive); with A549, 81.5 µM (inactive); with CCRF-CEM, 24.5 µM (inactive); in the assay on COLO 205, 18 µM (inactive); in the assay on EKVX it was 54.6 µM (inactive); in the assay on HOP-62, 92.5 µM (inactive). Moreover, the GI50 is 16.2 µM (inactive) in the assay with LOX IMVI; 17.5 µM (inactive) with M14; 53.7 µM (inactive) in the assay on MCF7; 34.1 µM (inactive) in the assay on MDA-N; 81.5 µM (inactive) in the assay on NCI-H226; 96.8 µM (inactive) with NCI-H23. In addition, the GI50 with OVCAR-4 is 31.5 µM (inactive); in the assay with PC-3 it was 30.4 µM (inactive); in the assay with SF-295 it was 30.4 µM (inactive); in the assay with SW-620, 98.9 µM (inactive); in the assay on TK-10, 52.1 µM (inactive); with UACC-62 it was 24.7 µM (inactive). In addition, the GI50 in the assay with UO-31 is 26.1 µM (inactive).
As to `COc1ccccc1Nc1nc(NNC(=O)Cc2ccccc2)nc(NNC(=O)c2ccncc2)n1`, the GI50 in the assay on 786-0, with A549, with CAKI-1, in the assay with CCRF-CEM, in the assay on COLO 205 and in the assay with EKVX was > 10 µM (inactive) throughout. Also, the GI50 in the assay with HOP-62, in the assay with LOX IMVI, with M14, in the assay on MCF7, in the assay with MDA-N and in the assay on NCI-H23 was > 10 µM (inactive) throughout. Besides, the GI50 in the assay on OVCAR-4, in the assay with SW-620, with TK-10 and with UACC-62 was > 10 µM (inactive) in each case.
`COC(=O)[C@@H]1CN(C(=O)CCc2ccccc2)C(=O)N1C(=O)OCc1ccccc1`: the GI50 in the assay on 786-0, in the assay with A549, in the assay with CAKI-1, with CCRF-CEM, in the assay with COLO 205 and with EKVX was > 100 µM (inactive) in each case. Further, the GI50 with HOP-62, in the assay with LOX IMVI, in the assay on M14, in the assay on MCF7, with MDA-N and in the assay with NCI-H226 was > 100 µM (inactive) each time. Further, the GI50 in the assay on NCI-H23, in the assay with OVCAR-4, with SF-295, in the assay on SW-620, in the assay with TK-10 and with UACC-62 was > 100 µM (inactive) in each case. In addition, the GI50 in the assay on UO-31 was > 100 µM (inactive).
For `Cn1ccc(C(=O)NCCOCCNC(=O)c2ccn(C)c(=O)c2O)c(O)c1=O`, the GI50 with 786-0, with A549, in the assay with CAKI-1, in the assay with COLO 205, in the assay on LOX IMVI and in the assay with MDA-N was > 100 µM (inactive) throughout. For the same compound, the GI50 in the assay on NCI-H226, with NCI-H23, with OVCAR-4, in the assay on PC-3, in the assay on SW-620 and with TK-10 was > 100 µM (inactive) each time. The GI50 in the assay on UACC-62 and in the assay on UO-31 was > 100 µM (inactive) each time.

The values above are taken from ChEMBL document CHEMBL1201862, “PubChem BioAssay data set” (2004).
